Converted amounts (≈) assume the structure as drawn. Read-outs that look alike come from different tables or passages of the source. Peptide text beside a SMILES is read from it.
Tests used:
in vitro = settings: dog, MDCK cells
[1] = tested on: A/Hong Kong/415742Md/2009 (H1N1); type: in vivo
influenza A virus (H1N1) = type: cell-based, influenza A virus A/Hong Kong/415742Md/2009 (H1N1)

With CC[C@H](C)[C@H](NC(=O)[C@H](C)NC(=O)CNC(=O)[C@@H](N)CC(N)=O)C(=O)N[C@@H](CS)C(=O)N[C@@H](Cc1c[nH]c2ccccc12)C(=O)NCC(=O)N1CCC[C@H]1C(=O)N[C@@H](CS)C(=O)N1CCC[C@H]1C(=O)N[C@H](C(=O)N[C@@H](C)C(=O)N[C@@H](Cc1ccccc1)C(=O)N[C@@H](CCCNC(=N)N)C(=O)N[C@@H](CCC(N)=O)C(=O)N[C@H](C(=O)NCC(=O)N[C@@H](CC(N)=O)C(=O)N[C@@H](CS)C(=O)NCC(=O)N[C@@H](Cc1c[nH]cn1)C(=O)N[C@@H](Cc1ccccc1)C(=O)N[C@@H](CCCCN)C(=O)N[C@H](C(=O)N[C@@H](CCCNC(=N)N)C(=O)N[C@@H](CS)C(=O)N[C@@H](CS)C(=O)N[C@@H](CCCCN)C(=O)N[C@H](C(=O)N[C@@H](CCCNC(=N)N)C(=O)O)[C@@H](C)CC)C(C)C)[C@@H](C)CC)[C@@H](C)O [Peptide P9] (H-NGAICWGPCPTAFRQIGNCGHFKVRCCKIR-OH) the “binding of P9 to cells” value (H1N1 virus) was “no P9 (SEQ ID NO: 10) was detected on the cell membrane or inside the cells”, the “binding of P9 to virus particles” value (H1N1 virus) was “bound to the green-labeled virus particles” and the “virus binding to the cell membrane” value (H1N1 virus) was “could not block the virus binding to the cell membrane”. The “virus entry into cells by endocytosis” value (H1N1 virus) was “did not affect the virus entry into cells by endocytosis”, the CC50 at 24 h (in vitro) was 860 mg/L (≈ 258 µM) and the viability at 24 h, 7.8 µg/mL (in vitro) was 102%. It also gave a viability at 24 h, 15.6 µg/mL (in vitro) of 95.9%, a viability at 24 h, 31.25 µg/mL (in vitro) of 108% and a viability at 24 h, 62.5 µg/mL (in vitro) of 96%. The viability at 24 h, 125 µg/mL (in vitro) was 94.7%, the viability at 24 h, 250 µg/mL (in vitro) was 95.3% and the viability at 24 h, 500 µg/mL (in vitro) was 83.4%. The viability at 24 h, 750 µg/mL (in vitro) was 59.8%, the viability at 24 h, 1000 µg/mL (in vitro) was 38.7% and the “viral loads in lung tissues (RNA copies by RT-PCR, titers by plaque assay)” value ([1]; pretreated and i.n. or i.p. treated mice, day 5 after challenge, versus untreated) was “significantly lower than those of the untreated mice”. The “alveolar damage and interstitial inflammatory infiltration in lung (H&E)” value ([1]; pretreated or treated mice versus rmBD4 and untreated mice) was “much less severe”, the survival rate ([1]; prophylactic, i.n. 50 μg/mouse before challenge with 5 LD50 H1N1, 9 mice/group, 21 days) was 100% and the survival rate ([1]; therapeutic, i.n. 3 doses 50 μg/dose/day starting 4 hours after lethal challenge) was 67%. For the same molecule, the survival rate ([1]; therapeutic, i.p. 6 doses 200 μg/dose/day starting 4 hours post-challenge) was 22%, the survival rate ([1]; therapeutic, i.p. 6 doses 400 μg/dose/day starting 4 hours post-challenge) was 56% and the “endosomal acidification (red fluorescence of pHrodo Red dextran)” value (endosomal acidification) was “no red fluorescence in color image was observed”. For the same molecule, the “antiviral effect (infection ratio by plaque assay)” value (influenza A virus (H1N1)) was “highest antiviral effect”, the “antiviral effectiveness in low-salt PB compared with high-salt MEM” value (influenza A virus (H1N1)) was “more effective in low-salt phosphate buffer (PB) than in high-salt minimum essential medium (MEM)” and the “TC50 (50% toxic concentration)” value (MDCK cells) was 860 mg/L (≈ 258 µM).
Molecule CC[C@H](C)[C@H](N)C(=O)N[C@H](C(=O)N[C@@H](CC(N)=O)C(=O)N[C@@H](CC(N)=O)C(=O)N1CCC[C@H]1C(=O)N[C@H](C(=O)N[C@H](C(=O)N[C@@H](CS)C(=O)N[C@@H](CCSC)C(=O)N[C@H](C(=O)N[C@@H](CC(N)=O)C(=O)NCC(=O)N[C@@H](C)C(=O)N[C@H](C(=O)N[C@@H](CS)C(=O)N[C@@H](Cc1c[nH]c2ccccc12)C(=O)NCC(=O)N1CCC[C@H]1C(=O)N[C@@H](CS)C(=O)N1CCC[C@H]1C(=O)N[C@H](C(=O)N[C@@H](C)C(=O)N[C@@H](Cc1ccccc1)C(=O)N[C@@H](CCCNC(=N)N)C(=O)N[C@@H](CCC(N)=O)C(=O)N[C@H](C(=O)NCC(=O)N[C@@H](CC(N)=O)C(=O)N[C@@H](CS)C(=O)NCC(=O)N[C@@H](Cc1c[nH]cn1)C(=O)N[C@@H](Cc1ccccc1)C(=O)N[C@@H](CCCCN)C(=O)N[C@H](C(=O)N[C@@H](CCCNC(=N)N)C(=O)N[C@@H](CS)C(=O)N[C@@H](CS)C(=O)N[C@@H](CCCCN)C(=O)N[C@H](C(=O)N[C@@H](CCCNC(=N)N)C(=O)O)[C@@H](C)CC)C(C)C)[C@@H](C)CC)[C@@H](C)O)[C@@H](C)CC)[C@@H](C)O)[C@@H](C)O)[C@@H](C)CC)[C@@H](C)CC [smBD4, reference compound] has a CC50 at 24 h (in vitro) of 94 mg/L (≈ 21.2 µM), a viability at 24 h, 7.8 µg/mL (in vitro) of 93.7% and a viability at 24 h, 15.6 µg/mL (in vitro) of 85.3%. It also gave a viability at 24 h, 31.25 µg/mL (in vitro) of 71.9%, a viability at 24 h, 62.5 µg/mL (in vitro) of 60% and a viability at 24 h, 125 µg/mL (in vitro) of 45.5%. The viability at 24 h, 250 µg/mL (in vitro) was 36.5%, the “antiviral effectiveness in low-salt PB compared with high-salt MEM” value (influenza A virus (H1N1)) was “more effective in low-salt phosphate buffer (PB) than in high-salt minimum essential medium (MEM)” and the “TC50 (50% toxic concentration)” value (MDCK cells) was 94 mg/L (≈ 21.2 µM).

— patent US9822155B2 (priority 2013, dated 2017)
